Changes are numbered by the printed parent chain.
Key:
AR [1] = target: T1, AR (Homo sapiens, UniProt P10275); experiment: Reporter gene assay, AR transcriptional (MMTV-Luc) in CV1 cells; type: cell-based; conditions: pcDNA-AR + MMTV-Luc, 0.1 nM R1881 plus test compound, 24 hrs, read-out: B1 = AR transcriptional IC50 (μM) in CV1 cells
T1 construct: expressed in transfected cells; host or cells: CV1 cells
T1 sequence (P10275 1-920): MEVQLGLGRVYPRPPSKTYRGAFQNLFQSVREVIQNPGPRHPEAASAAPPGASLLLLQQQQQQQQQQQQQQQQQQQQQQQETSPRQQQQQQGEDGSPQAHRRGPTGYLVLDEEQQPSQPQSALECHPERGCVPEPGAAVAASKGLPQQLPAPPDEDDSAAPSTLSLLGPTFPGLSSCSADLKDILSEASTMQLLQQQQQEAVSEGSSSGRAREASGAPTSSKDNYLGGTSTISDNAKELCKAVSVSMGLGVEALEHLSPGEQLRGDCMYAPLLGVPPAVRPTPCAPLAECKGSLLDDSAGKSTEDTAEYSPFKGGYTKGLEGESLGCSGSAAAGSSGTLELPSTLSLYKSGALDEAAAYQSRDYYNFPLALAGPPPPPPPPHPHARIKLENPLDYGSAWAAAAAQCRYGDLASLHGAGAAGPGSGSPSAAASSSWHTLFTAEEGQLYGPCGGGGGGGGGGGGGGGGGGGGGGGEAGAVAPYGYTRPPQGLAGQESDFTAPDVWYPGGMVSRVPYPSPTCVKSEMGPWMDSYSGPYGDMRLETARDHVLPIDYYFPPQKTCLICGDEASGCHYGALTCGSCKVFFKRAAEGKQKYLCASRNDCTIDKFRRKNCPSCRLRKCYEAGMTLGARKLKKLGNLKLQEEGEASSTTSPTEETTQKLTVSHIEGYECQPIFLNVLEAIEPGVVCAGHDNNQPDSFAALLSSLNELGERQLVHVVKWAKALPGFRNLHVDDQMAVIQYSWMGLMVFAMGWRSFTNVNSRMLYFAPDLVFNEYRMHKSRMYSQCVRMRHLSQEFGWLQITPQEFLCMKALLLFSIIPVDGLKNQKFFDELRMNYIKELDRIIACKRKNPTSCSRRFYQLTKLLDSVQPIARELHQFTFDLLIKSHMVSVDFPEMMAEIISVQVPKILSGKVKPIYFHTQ
Method in brief: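 CV1 cells transiently co-transfected with human AR, MMTV-Luc reporter and Renilla-Luc (transfection efficiency and toxicity read-out), then stimulated 24 h with 0.1 nM R1881 plus increasing test compound concentrations. Firefly and Renilla luciferase quantified by dual-luciferase assay; IC50 derived from concentration-response.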

AR [2] = target: T2, AR (Homo sapiens, UniProt P10275, T878A); experiment: In Cell Western AR degradation assay in LNCaP cells; type: cell-based; conditions: 18 hrs, greater than 50% degradation at 10 μM (method says 20 μM)
T2 construct: endogenous in cells; host or cells: LNCaP cells
T2 sequence (P10275 1-920 T878A): T1 sequence (P10275 1-920) with T878A
Description: In Cell Western (AR degradation Assay, Table 2, B10). LNCaP cells were plated in 96-well clear bottom black plates (20K cells/well) in RPMI supplemented with 8% CFS. Following 48 hr incubation, cells were treated with hormone (20 μM test compound) for 18 hrs. Cells were fixed with formaldehyde (3.7%) and permeabilized using PBS (0.1% TRITON X-100). Cells were incubated with anti-AR antibody (N20, 1:2000), washed with PBS (0.1% Tween), and stained with 2nd antibody (Biotium CF770 goat anti-rabbit, 1:2000). AR protein expression was assessed using the LI-COR Odyssey imaging system. DRAQ5 (DNA stain, 1:10,000, Thermo Scientific) was used to normalize AR protein expression.
For B4-B7, scoring system is based on the relative AR target gene agonist/antagonist activity of test compounds when compared to benchmark compounds enzalutamide or bicalutamide. […] The lack of agonist activity is desirable for therapies intended to treat CRPC. For B4 and B6, a score of 1 indicates less agonism (highly desired activity) than benchmark compound enzalutamide, a score of 2 indicates equal agonism to enzalutamide (desirable), a score of 3 indicates agonism between enzalutamide and bicalutamide (less desirable activity), a score of 4 indicates equal agonism to bicalutamide (liability), and a score of 5 indicates higher agonism than bicalutamide (liability). For B5 and B7 a score of 1 indicates higher antagonist efficacy (highly desired activity) than benchmark compound enzalutamide, a score of 2 indicates equal antagonist efficacy to enzalutamide (desirable), a score of 3 indicates antagonist efficacy between enzalutamide and bicalutamide (less desirable activity), a score of 4 indicates antagonist efficacy equal to bicalutamide (liability), and a score of 5 indicates antagonist efficacy worse than bicalutamide (liability) For B9, Compounds that degrade AR (greater than 50% degradation at 10 μM) are indicated.

Compound | IC50 (AR [1]) | B9 = AR degradation in LNCaP cells (In-Cell Western) (AR [2])
CC1(C)CC(=O)C2=C(C1)Nc1ccc3ncccc3c1C2c1cc(Br)cs1 (centres unmarked) [Compound A61] | 1.8 µM | Degrader (Compounds that degrade AR (greater than 50% degradation at 10 μM) are indicated)
CC1(C)CC(=O)C2=C(C1)Nc1ccc3ncccc3c1C2c1sccc1Br (centres unmarked) [Compound A62] | > 10 µM | Degrader (Compounds that degrade AR (greater than 50% degradation at 10 μM) are indicated)
CC1(C)CC(=O)C2=C(C1)Nc1ccc3ncccc3c1C2c1ccc(Br)s1 (centres unmarked) [Compound A63] | 1.9 µM | Degrader (Compounds that degrade AR (greater than 50% degradation at 10 μM) are indicated)
CC1(C)CC(=O)C2=C(C1)Nc1ccc3ncccc3c1C2c1ccc(Cl)s1 (centres unmarked) [Compound A64] | 1.9 µM | Degrader (Compounds that degrade AR (greater than 50% degradation at 10 μM) are indicated)
CC1(C)CC(=O)C2=C(C1)Nc1ccc3ncccc3c1C2c1nccs1 (centres unmarked) [Compound A67] | > 10 µM | Degrader (Compounds that degrade AR (greater than 50% degradation at 10 μM) are indicated)
CC1(C)CC(=O)C2=C(C1)Nc1ccc3ncccc3c1C2c1c[nH]c2ccc(F)cc12 (centres unmarked) [Compound A68] | > 10 µM | Degrader (Compounds that degrade AR (greater than 50% degradation at 10 μM) are indicated)
CC1(C)CC(=O)C2=C(C1)Nc1ccc3ncccc3c1C2c1ccsc1 (centres unmarked) [Compound A69] | 6.1 µM | Degrader (Compounds that degrade AR (greater than 50% degradation at 10 μM) are indicated)
CC1(C)CC(=O)C2=C(C1)Nc1ccc3ncccc3c1C2c1cccc(C(F)(F)F)c1 (centres unmarked) [Compound A70] | > 10 µM | Degrader (Compounds that degrade AR (greater than 50% degradation at 10 μM) are indicated)
CC1(C)CC(=O)C2=C(C1)Nc1ccc3ncccc3c1C2c1ccc(Cl)nc1 (centres unmarked) [Compound A71] | 6.9 µM | Degrader (Compounds that degrade AR (greater than 50% degradation at 10 μM) are indicated)
CC1(C)CC(=O)C2=C(C1)Nc1ccc3ncccc3c1C2c1ccc(C#N)c(F)c1 (centres unmarked) [Compound A72] | 7.7 µM | Degrader (Compounds that degrade AR (greater than 50% degradation at 10 μM) are indicated)
CC1(C)CC(=O)C2=C(C1)Nc1ccc3ncccc3c1C2c1ccc(F)c(Br)c1 (centres unmarked) [Compound A74] | 8.6 µM | Degrader (Compounds that degrade AR (greater than 50% degradation at 10 μM) are indicated)
CC1(C)CC(=O)C2=C(C1)Nc1ccc3ncccc3c1C2c1ccc(Cl)c([N+](=O)[O-])c1 (centres unmarked) [Compound A75] | > 10 µM | Degrader (Compounds that degrade AR (greater than 50% degradation at 10 μM) are indicated)
CC1(C)CC(=O)C2=C(C1)Nc1ccc3ncccc3c1C2c1cc(Br)c(Br)s1 (centres unmarked) [Compound A76] | 2.2 µM | Degrader (Compounds that degrade AR (greater than 50% degradation at 10 μM) are indicated)
Cn1ncc2ccc3c(c21)C(c1ccc(F)c(F)c1)C1=C(CC(C)(C)CC1=O)N3 (centres unmarked) [Compound A78] | > 10 µM | Degrader (Compounds that degrade AR (greater than 50% degradation at 10 μM) are indicated)
CC1(C)CC(=O)C2=C(C1)Nc1ccc3c(c1C2c1ccc(Cl)s1)OCO3 (centres unmarked) [Compound A107] | 0.9 µM | Degrader (Compounds that degrade AR (greater than 50% degradation at 10 μM) are indicated)
Cn1ncc2ccc3c(c21)C(c1ccc(Cl)s1)C1=C(CC(C)(C)CC1=O)N3 (centres unmarked) [Compound A109] | 4.7 µM | Degrader (Compounds that degrade AR (greater than 50% degradation at 10 μM) are indicated)
CC1(C)CC(=O)C2=C(C1)Nc1ccc3cn[nH]c3c1C2c1ccc(Br)s1 (centres unmarked) [Compound A110] | > 10 µM | Degrader (Compounds that degrade AR (greater than 50% degradation at 10 μM) are indicated)
CC1(C)CC(=O)C2=C(C1)Nc1ccc3c(c1C2c1ccc(Br)s1)OCO3 (centres unmarked) [Compound A111] | 1.4 µM | Degrader (Compounds that degrade AR (greater than 50% degradation at 10 μM) are indicated)
Cn1ncc2ccc3c(c21)C(c1ccc(Br)s1)C1=C(CC(C)(C)CC1=O)N3 (centres unmarked) [Compound A113] | 5.1 µM | Degrader (Compounds that degrade AR (greater than 50% degradation at 10 μM) are indicated)
Cc1ccsc1C1C2=C(CC(C)(C)CC2=O)Nc2ccc3ncccc3c21 (centres unmarked) [Compound A114] | 1.1 µM | Degrader (Compounds that degrade AR (greater than 50% degradation at 10 μM) are indicated)
Cc1ccsc1C1C2=C(CC(C)(C)CC2=O)Nc2cc(N3CCCC3)ccc21 (centres unmarked) [Compound A116] | > 10 µM | Degrader (Compounds that degrade AR (greater than 50% degradation at 10 μM) are indicated)
Cc1ccsc1C1C2=C(CC(C)(C)CC2=O)Nc2ccc3ccccc3c21 (centres unmarked) [Compound A117] | 2.3 µM | Degrader (Compounds that degrade AR (greater than 50% degradation at 10 μM) are indicated)

From patent publication US20180303807A1, “ANDROGEN RECEPTOR LIGANDS” (DUKE UNIVERSITY, priority 2015, published 2018)
